Source: PMC6832932, “Design and Selection of Novel C1s Inhibitors by In Silico and In Vitro Approaches” (Molecules, 2019)
Where two headings read alike, the source gives them in different places.

Assays:
C1s [1] = target: T1, C1s (Homo sapiens, UniProt P09871); assay: C1s focused library screening (fluorescent substrate Boc-Leu-Gly-Arg-AMC, 10 µM); format: biochemical
T1 construct: Recombinant C1s and C1r fragments (CCP1-CCP2-SP, the γB catalytic region); made in house
T1 sequence (P09871 438-688 limits assumed): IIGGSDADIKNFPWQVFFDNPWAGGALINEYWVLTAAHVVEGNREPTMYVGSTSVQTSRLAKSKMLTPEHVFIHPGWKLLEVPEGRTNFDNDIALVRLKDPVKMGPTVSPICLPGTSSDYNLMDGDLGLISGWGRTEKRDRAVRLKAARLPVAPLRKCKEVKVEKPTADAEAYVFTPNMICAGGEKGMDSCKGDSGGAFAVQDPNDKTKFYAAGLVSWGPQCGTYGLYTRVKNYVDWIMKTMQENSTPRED
Source text: (§1) Recombinant C1s and C1r fragments (CCP1-CCP2-SP, the γB catalytic region) containing the serine protease domain were expressed in E. Coli BL21(DE3)pLysS host strain (transformed with pET-17b vector) in form of inclusion bodies; proteins were isolated, renatured and purified as published earlier. Recombinant C1s, isolated in intact proenzyme form, was activated by limited proteolysis using the recombinant, autoactivated C1r fragment. Activated C1s and C1r were separated using Q Sepharose HP (Amersham Biosciences, Little Chalfont, UK) anion exchange chromatography.
Two end-point assays have been developed for C1s inhibition assays: For screening assays a specific, fluorescent amide substrate Boc-Leu-Gly-Arg-AMC (Sigma, St. Louis, MO, USA), representing the cleavage site sequence of C2 was used with relatively high enzyme concentration (0.2 µM). Assay conditions: 20 mM HEPES (pH 7.4), 200 mM NaCl, 0.05% Tween20, 1% DMSO; 384 microplate format; 10 µL enzyme + 10 µL inhibitor compounds (final concentration: 10 µM); incubation time and temperature: 10 min, RT; then 20 µL substrate solution was added (1 mM final concentration); incubated (45 min, 30 °C) and the fluorescence have been read (355/460 nm; Wallac 1420 Victor2 microplate reader, Perkin Elmer, Waltham, MA, USA).

C1s [2] = conditions: ref [47]; cited from earlier work
C1s [3] = target: T1, C1s; conditions: ref [49]; read-out: IC50 C1s, reported value; cited from earlier work
C1s [4] = target: T1, C1s; assay: C1s inhibition IC50 assay (thioester substrate Z-Lys-SBzl with DTNB, photometric); format: biochemical; conditions: validation with FUT175; read-out: IC50 C1s (assay validation)
Source text: as §1
40 µL enzyme + 10 µL inhibitor compounds were incubated (10 min, RT), and 50 µL substrate solution (1 mM final concentration) was added; incubated for 45 min and finally absorbance was read (405 nm) with a Perkin Elmer Wallac 1420 Victor2 microplate reader.

**Q.** Which “C1s inhibitory activity (in words)” value (C1s [1]) does the source give for O=C(c1ccc(C(=O)n2nnc3ccccc32)cc1)n1nnc2ccccc21 [1-[4-(1,2,3-benzotriazole-1-carbonyl)benzoyl]-1,2,3-benzotriazole] here?
**A.** The value was “inactive”.

**Q.** With O=c1oc(-c2ccccc2I)nc2ccccc12 [CID296008, 2-(2′-iodophenyl)-3,1-benzoxazin-4-one] as the compound, how does the IC50 (C1s [2]) read?
**A.** Its IC50 is 1.25 µM.

**Q.** Which IC50 (C1s [3]) does the source give for N=C(N)c1ccc2cc(OC(=O)c3ccc(N=C(N)N)cc3)ccc2c1 [FUT175, nafamostat, reference compound] here?
**A.** Its IC50 is 0.32 µM.

**Q.** And the IC50 (C1s [4])?
**A.** Its IC50 is 0.002 µM.
